Measured values as given in PubChem BioAssay (NCI).
Values joined by “and” are separate entries in the source; they are usually repeats but may differ in a detail not shown here. Equal entries are not always repeated.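 Protocol summary: plate cells (96-well), add compound at 5 concentrations, incubate 48 h, interpolate endpoints linearly. Here, GI50 denotes the concentration required for 50% inhibition of growth. TGI: total growth inhibition.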

Experiments:
Test in all cases: NCI anticancer screen, dose series, 48 h
[1] = tested on: SNB-78 CNS
[2] = tested on: HOP-18 NSCLC
[3] = tested on: DMS 114 small cell lung
[4] = tested on: KM20L2 colon
[5] = tested on: RXF-631 renal
[6] = tested on: MCF7 breast
[7] = tested on: MDA-N
[8] = tested on: DU-145 prostate
[9] = tested on: MDA-MB-231 breast

O=C1C2C3C=C4c5ccccc5N(c5ccccc5)C4(C2C(=O)N1Cc1ccccc1)C1C(=O)N(Cc2ccccc2)C(=O)C31 (stereo not given)
TGI [1]: > 100 µM | TGI [2]: > 100 µM | TGI [3]: > 100 µM | TGI [4]: > 100 µM | TGI [5]: > 100 µM

COc1cc2c(c(OC)c1OC)-c1ccc(OC)c(=O)cc1[C@@H](NC(=O)c1ccccc1)CC2
TGI [1]: 38.7 µM | TGI [2]: > 100 µM | TGI [3]: < 0.016 µM | GI50 [6]: < 0.003 µM | TGI [6]: 30 µM and > 7.65 µM | GI50 [7]: < 0.003 µM | TGI [7]: < 0.003 µM | GI50 [8]: < 0.003 µM | TGI [8]: 0.0329 µM and 0.237 µM | TGI [9]: 15.7 µM | TGI [5]: > 48.3 µM

CCOc1ccccc1NC(=O)CC(C(=O)OC)C(=O)C(=O)OC (stereo not given)
TGI [1]: > 100 µM | TGI [2]: > 100 µM | TGI [3]: > 100 µM | TGI [4]: > 100 µM | TGI [5]: > 100 µM

Cc1cn(C2CC(O)C(CO)O2)c(=O)n2nnnc12 (stereo not given)
TGI [1]: > 100 µM | TGI [2]: > 100 µM | TGI [3]: > 100 µM | TGI [5]: > 100 µM

Cc1ccc(C2=C(c3ccccc3)C(Br)(c3ccc(C)cc3)C(c3ccccc3)=C2c2ccc(C)cc2)cc1
TGI [1]: > 100 µM | TGI [2]: > 100 µM | TGI [3]: > 100 µM | TGI [4]: > 100 µM | TGI [5]: > 100 µM

Cc1nc(N)sc1C(=O)/C=C\c1ccc2c(c1)OCO2
TGI [1]: > 100 µM | TGI [2]: > 100 µM | TGI [3]: > 100 µM | TGI [4]: > 100 µM | TGI [5]: > 100 µM

Cn1c(=O)c(C(c2ccc([N+](=O)[O-])cc2)c2c(O)c3ccccc3n(C)c2=O)cc2ccccc21 (stereo not given)
TGI [1]: > 100 µM | TGI [2]: > 100 µM | TGI [3]: > 100 µM | TGI [4]: > 100 µM | TGI [5]: > 100 µM

CC1CC[C@]2(C(=O)O)CCC3(C)C(=CC(=O)C4[C@@]5(C)CCC(=O)C(C)(C)C5CC[C@]43C)[C@@H]2[C@H]1C (stereo not given in full)
TGI [1]: > 100 µM | TGI [2]: 94.6 µM | TGI [3]: 63.1 µM | TGI [5]: > 100 µM

CCOc1ccccc1N=Nc1ccc2oc(=O)c(C(=O)Nc3cccc(C)c3)cc2c1
TGI [1]: 91.3 µM | TGI [3]: 63.4 µM | TGI [4]: > 100 µM | TGI [5]: > 100 µM

CC(=O)/C(C)=N/NC(=O)c1ccccc1O
TGI [1]: > 10 µM | TGI [2]: > 10 µM | TGI [3]: > 10 µM | TGI [4]: > 10 µM | TGI [6]: > 100 µM | TGI [7]: > 100 µM | TGI [8]: > 100 µM | TGI [9]: > 100 µM | TGI [5]: > 10 µM

C[C@@H]1CC(=O)C2CCCC1C2=O (stereo not given in full)
TGI [1]: > 100 µM | TGI [2]: > 100 µM | TGI [3]: > 100 µM | TGI [4]: > 100 µM | TGI [5]: > 100 µM

COc1ccc(C(=O)C(C(=O)CCC(=O)Nc2cccc(Cl)c2)c2ccc(OC)cc2)cc1 (stereo not given)
TGI [2]: > 100 µM | TGI [4]: > 100 µM | TGI [5]: > 100 µM
